Columns and labels:
[1] = Permeability of the compound at pH 7.4 by PAMPA; format: ADME
[2] = Permeability of the compound at pH 5.5 by PAMPA; format: ADME

Row | permeability [1] | permeability [2] | SMILES
1 | Impermeable | Impermeable | NCCCCN(C[C@H]1Cc2ccccc2CN1)[C@H]1CCCc2cccnc21
2 | Impermeable | Impermeable | Cc1ccc([C@H](C)N(CCCCN)C[C@H]2Cc3ccccc3CN2)nc1
3 | Impermeable | Impermeable | COc1cccnc1CN(CCCCN)C[C@H]1Cc2ccccc2CN1
4 | Impermeable | Impermeable | NCCCCN(Cc1ccc(F)cn1)C[C@H]1Cc2ccccc2CN1
5 | Impermeable | Impermeable | NCCCCN(Cc1ccc2ccccc2n1)C[C@H]1Cc2ccccc2CN1
6 | Impermeable | Impermeable | Cc1cc(F)cnc1CN(CCCCN)C[C@H]1Cc2ccccc2CN1
7 | Impermeable | Impermeable | NCCCCN(Cc1ccc(Cl)cn1)C[C@H]1Cc2ccccc2CN1
8 | Impermeable | Impermeable | NCCCCN(Cc1ccc(C(F)(F)F)cn1)C[C@H]1Cc2ccccc2CN1
9 | Impermeable | Impermeable | Cc1cnc2c(c1)CCC[C@@H]2N(CCCCN)C[C@H]1Cc2ccccc2CN1
10 | Impermeable | Impermeable | NCCCCN(Cc1cc(Cl)ccn1)C[C@H]1Cc2ccccc2CN1
11 | Impermeable | Impermeable | Cc1cccnc1[C@H](C)N(CCCCN)C[C@H]1Cc2ccccc2CN1
12 | Impermeable | Impermeable | Cc1ccnc(CN(CCCCN)C[C@H]2Cc3ccccc3CN2)c1
13 | Impermeable | Impermeable | NCCCCN(Cc1cscn1)C[C@H]1Cc2ccccc2CN1
14 | Impermeable | Impermeable | NCCCCN(Cc1ncccc1C1CC1)C[C@H]1Cc2ccccc2CN1
15 | Impermeable | Impermeable | C[C@@H](c1ccccn1)N(CCCCN)C[C@H]1Cc2ccccc2CN1
16 | Impermeable | Impermeable | Cc1cccc(CN(CCCCN)C[C@H]2Cc3ccccc3CN2)n1

Row | permeability [1] | permeability [2] | SMILES
17 | Impermeable | Impermeable | NCCCCN(Cc1ncccc1F)C[C@H]1Cc2ccccc2CN1
18 | Impermeable | Impermeable | Cc1nc(CN(CCCCN)C[C@H]2Cc3ccccc3CN2)cs1
19 | Impermeable | Impermeable | Cc1cnc(CN(CCCCN)C[C@H]2Cc3ccccc3CN2)c(C)c1
20 | Impermeable | Impermeable | COc1ccc(CN(CCCCN)C[C@H]2Cc3ccccc3CN2)nc1
21 | Impermeable | Impermeable | NCCCCN(C[C@H]1Cc2ccccc2CN1)[C@H]1CCOc2cccnc21
22 | Impermeable | Impermeable | NCCCCN(Cc1nccc2ccccc12)C[C@H]1Cc2ccccc2CN1
23 | Impermeable | Impermeable | NCCCCN(Cc1ncccc1Cl)C[C@H]1Cc2ccccc2CN1
24 | Impermeable | Impermeable | Cc1cnc(CN(CCCCN)C[C@H]2Cc3ccccc3CN2)c(F)c1
25 | Impermeable | Impermeable | Cc1cccnc1CN(CCCCN)C[C@H]1Cc2ccccc2CN1
26 | Impermeable | Impermeable | NCCCCN(Cc1ncccc1C(F)(F)F)C[C@H]1Cc2ccccc2CN1
27 | Impermeable | Impermeable | NCCCCN(Cc1ccccn1)C[C@H]1Cc2ccccc2CN1
28 | Impermeable | Impermeable | Cc1ccc(CN(CCCCN)C[C@H]2Cc3ccccc3CN2)nc1
29 | Impermeable | Impermeable | NCCCCN(Cc1cc2ccccc2cn1)C[C@H]1Cc2ccccc2CN1
30 | Impermeable | Impermeable | C=Cc1cccnc1CN(CCCCN)C[C@H]1Cc2ccccc2CN1
31 | Impermeable | Impermeable | NCCCCN(Cc1nccs1)C[C@H]1Cc2ccccc2CN1
